In brackets after ≈: the same amount, converted by molar mass. Activity calls are given as the source filed them. The rule behind the calls is not given here.
Experiments:
Cell membrane [1] = test: Induction of membrane depolarization in methicillin-resistant Staphylococcus aureus ATCC 33591 assessed as depolarized bacterial cells by measuring green fluorescence at 8 ug/ml incubated for 4 hrs by DiOC2(3) dye based flow cytometry analysis (reference value: 27.3%); format: cell membranes; settings: dose 8.0 µg/ml
Staphylococcus aureus [2] = test: Bactericidal activity against methicillin-resistant Staphylococcus aureus ATCC 33591 assessed as eradication of bacterial cells at 8 ug/ml observed within 12 hrs by time killing analysis relative to control; format: functional; settings: dose 8 µg/ml
Cell membrane [3] = test: Induction of cytoplasmic membrane depolarization in methicillin-resistant Staphylococcus aureus ATCC 33591 assessed as increase in fluorescence intensity measured after 24 min by DiSC3-5 dye based fluorescence method; settings: dose 4-16 µg/ml
[4] = tested on: Staphylococcus epidermidis; test: Antibacterial activity against Staphylococcus epidermidis MTCC 3615 incubated for 16 to 18 hrs by broth dilution method; format: functional; settings: time 16-18 hrs
[5] = Selectivity index, ratio of HC50 for hemolytic activity in human RBC to MIC for antibacterial activity against Staphylococcus aureus; format: toxicity; settings: human red blood cells (erythrocytes), read-out: Selectivity Index
Cell membrane [6] = test: Induction of membrane depolarization in methicillin-resistant Staphylococcus aureus ATCC 33591 assessed as depolarized bacterial cells by measuring red fluorescence at 8 ug/ml incubated for 4 hrs by DiOC2(3) dye based flow cytometry analysis (reference value: 63.8%); format: cell membranes; settings: dose 8.0 µg/ml
[7] = Selectivity index, ratio of HC50 for hemolytic activity in human RBC to MIC for antibacterial activity against Enterococcus faecium; format: toxicity; settings: human red blood cells (erythrocytes), read-out: Selectivity Index
[8] = Cytotoxicity against MDCK cells assessed as cell viability incubated for 24 hrs by alamar blue staining based assay; format: toxicity, Canis lupus familiaris; settings: dog
Staphylococcus aureus [9] = test: Antibacterial activity against methicillin-resistant Staphylococcus aureus R3889 incubated for 16 to 18 hrs by broth dilution method; format: functional; settings: time 16-18 hrs
Staphylococcus aureus [10] = test: Antibacterial activity against vancomycin-resistant Staphylococcus aureus 4 incubated for 16 to 18 hrs by broth dilution method; format: functional; settings: time 16-18 hrs
Staphylococcus aureus [11] = test: Antibiofilm activity against methicillin-resistant Staphylococcus aureus ATCC 33591 assessed as log reduction in bacterial burden in biofilm at 64 ug/ml incubated for 18 hrs; format: functional; settings: dose 64 µg/ml
[12] = Hemolytic activity in human RBC at 0.5 to 2 ug/ml incubated for 1 hr by microplate reader method relative to control; format: toxicity, cell-based, Erythrocyte; settings: human red blood cells (erythrocytes), at 0.5 to 2 µg/mL, dose 0.5-2 µg/ml, read-out: Activity
[13] = Selectivity index, ratio of HC50 for hemolytic activity in human RBC to MIC for antibacterial activity against vancomycin-resistant Enterococcus faecium 903; format: toxicity; settings: human red blood cells (erythrocytes), read-out: Selectivity Index
Staphylococcus aureus [14] = test: Bactericidal activity against methicillin-resistant Staphylococcus aureus ATCC 33591 assessed as log reduction in bacterial titer at 8 ug/ml observed within 12 hrs by time killing analysis; format: functional; settings: dose 8 µg/ml
Staphylococcus aureus [15] = test: Antibiofilm activity against methicillin-resistant Staphylococcus aureus ATCC 33591 assessed as reduction in biofilm biomass at 32 ug/ml incubated for 24 hrs by crystal violet staining based analysis relative to control; format: functional; set-up: scale not given: the % may be the effect or the level left; settings: dose 32 µg/ml
[16] = Selectivity index, ratio of HC50 for hemolytic activity in human RBC to MIC for antibacterial activity against methicillin-resistant Staphylococcus aureus R3889; format: toxicity; settings: human red blood cells (erythrocytes), read-out: Selectivity Index
[17] = Selectivity index, ratio of HC50 for hemolytic activity in human RBC to MIC for antibacterial activity against vancomycin-resistant Staphylococcus aureus 1; format: toxicity; settings: human red blood cells (erythrocytes), read-out: Selectivity Index
Staphylococcus aureus [18] = test: Antibacterial activity against vancomycin-resistant Staphylococcus aureus 1 incubated for 16 to 18 hrs by broth dilution method; format: functional; settings: time 16-18 hrs
Enterococcus faecium [19] = test: Antibacterial activity against vancomycin-resistant Enterococcus faecium 909 incubated for 16 to 18 hrs by broth dilution method; format: functional; settings: time 16-18 hrs
Escherichia coli = test: Antibacterial activity against Escherichia coli MTCC 443 incubated for 16 to 18 hrs by broth dilution method; format: functional; settings: time 16-18 hrs
Staphylococcus aureus [20] = test: Antibacterial activity against methicillin-resistant Staphylococcus aureus R3890 incubated for 16 to 18 hrs by broth dilution method; format: functional; settings: time 16-18 hrs
Staphylococcus aureus [21] = test: Bactericidal activity against vancomycin-resistant Staphylococcus aureus 1 assessed as reduction in bacterial count at 16 ug/ml observed after 12 hrs by time killing analysis; format: functional; set-up: scale not given: the % may be the effect or the level left; settings: dose 16 µg/ml
Staphylococcus aureus [22] = test: Induction of ROS generation in methicillin-resistant Staphylococcus aureus ATCC 33591 assessed as increase in fluorescence intensity by DCFH-DA dye based flow cytometry analysis; format: functional, organism-based; settings: dose 8-16 µg/ml
Staphylococcus aureus [23] = test: Antibiofilm activity against methicillin-resistant Staphylococcus aureus ATCC 33591 assessed as log reduction in bacterial burden in biofilm at 32 ug/ml incubated for 18 hrs; format: functional; settings: dose 32 µg/ml
[24] = Selectivity index, ratio of HC50 for hemolytic activity in human RBC to MIC for antibacterial activity against methicillin-resistant Staphylococcus aureus R3890; format: toxicity; settings: human red blood cells (erythrocytes), read-out: Selectivity Index
[25] = Cytotoxicity against MDCK cells assessed as cell viability at 0.5 to 4 ug/ml incubated for 24 hrs by alamar blue assay relative to control; format: toxicity, cell-based, Canis lupus familiaris; settings: dog, at 0.5 to 4 µg/mL, dose 0.5-4 µg/ml, read-out: Activity
Staphylococcus aureus [26] = test: Antibacterial activity against methicillin-resistant Staphylococcus aureus R3545 incubated for 16 to 18 hrs by broth dilution method; format: functional; settings: time 16-18 hrs
Cell membrane [27] = test: Induction of inner membrane permeabilization in methicillin-resistant Staphylococcus aureus ATCC 33591 assessed as appearance of dead bacterial cells with compromised membrane integrity at 16 ug/ml incubated for 4 hrs by Syto-9/PI staining based confocal microscopy; format: cell membranes; settings: dose 16.0 µg/ml
Staphylococcus aureus [28] = test: Antibacterial activity against methicillin-resistant Staphylococcus aureus ATCC 33591 incubated for 16 to 18 hrs by broth dilution method; format: functional; settings: time 16-18 hrs
Staphylococcus aureus [29] = test: Antibiofilm activity against methicillin-resistant Staphylococcus aureus ATCC 33591 assessed as eradication of bacteria by measuring colocalization of green and red cells at 64 ug/ml by Syto-9/PI staining based confocal laser scanning microscopy; format: functional, organism-based; settings: dose 64.0 µg/ml
Staphylococcus aureus [30] = test: Induction of resistance development in methicillin-resistant Staphylococcus aureus ATCC 33591 measured after 10 days by broth dilution method; format: functional; settings: time 10.0 day
Cell membrane [31] = test: Induction of membrane depolarization in methicillin-resistant Staphylococcus aureus ATCC 33591 assessed as depolarized bacterial cells by measuring red to green fluorescence ratio at 8 ug/ml incubated for 4 hrs by DiOC2(3) dye based flow cytometry analysis; format: cell membranes; settings: dose 8.0 µg/ml
Cell membrane [32] = test: Induction of cytoplasmic membrane depolarization in vancomycin-resistant Staphylococcus aureus 1 assessed as increase in fluorescence intensity and measured after 24 min by DiSC3-5 dye based fluorescence method; settings: dose 4-16 µg/ml
Staphylococcus aureus [33] = test: Antibiofilm activity against methicillin-resistant Staphylococcus aureus ATCC 33591 assessed as reduction in biofilm biomass at 64 ug/ml incubated for 24 hrs by crystal violet staining based analysis relative to control; format: functional; set-up: scale not given: the % may be the effect or the level left; settings: dose 64 µg/ml
Staphylococcus aureus [34] = test: Bactericidal activity against vancomycin-resistant Staphylococcus aureus 1 assessed as log reduction in bacterial titer at 8 ug/ml observed after 12 hrs by time killing analysis; format: functional; settings: dose 8 µg/ml
[35] = Selectivity index, ratio of HC50 for hemolytic activity in human RBC to MIC for antibacterial activity against vancomycin-resistant Staphylococcus aureus 4; format: toxicity; settings: human red blood cells (erythrocytes), read-out: Selectivity Index
Staphylococcus aureus [36] = test: Antibacterial activity against Staphylococcus aureus MTCC 737 incubated for 16 to 18 hrs by broth dilution method; format: functional; settings: time 16-18 hrs
[37] = Selectivity index, ratio of HC50 for hemolytic activity in human RBC to MIC for antibacterial activity against vancomycin-resistant Enterococcus faecium 909; format: toxicity; settings: human red blood cells (erythrocytes), read-out: Selectivity Index
Enterococcus faecium [38] = test: Antibacterial activity against Enterococcus faecium ATCC 19634 incubated for 16 to 18 hrs by broth dilution method; format: functional; settings: time 16-18 hrs
[39] = Selectivity index, ratio of HC50 for hemolytic activity in human RBC to MIC for antibacterial activity against Staphylococcus epidermidis; format: toxicity; settings: human red blood cells (erythrocytes), read-out: Selectivity Index
Enterococcus faecium [40] = test: Antibacterial activity against vancomycin-resistant Enterococcus faecium 903 incubated for 16 to 18 hrs by broth dilution method; format: functional; settings: time 16-18 hrs
[41] = Hemolytic activity in human RBC incubated for 1 hr by microplate reader method; format: toxicity, cell-based, Erythrocyte; settings: human red blood cells (erythrocytes)
[42] = Selectivity index, ratio of HC50 for hemolytic activity in human RBC to MIC for antibacterial activity against methicillin-resistant Staphylococcus aureus ATCC 33591; format: toxicity; settings: human red blood cells (erythrocytes), read-out: Selectivity Index
Staphylococcus aureus [43] = test: Antibiofilm activity against methicillin-resistant Staphylococcus aureus ATCC 33591 assessed as biofilm thickness at 64 ug/ml by Syto-9/PI staining based confocal laser scanning microscopy; format: functional; settings: dose 64 µg/ml
[44] = Selectivity index, ratio of HC50 for hemolytic activity in human RBC to MIC for antibacterial activity against methicillin-resistant Staphylococcus aureus R3545; format: toxicity; settings: human red blood cells (erythrocytes), read-out: Selectivity Index
Staphylococcus aureus [45] = test: Antibiofilm activity against methicillin-resistant Staphylococcus aureus ATCC 33591 assessed as eradication of enclosed biofilm measuring by reduction in green fluorescence at 32 ug/ml by Syto-9/PI staining based confocal laser scanning microscopy; format: functional, organism-based; settings: dose 32.0 µg/ml
Cell membrane [46] = test: Induction of membrane depolarization in methicillin-resistant Staphylococcus aureus ATCC 33591 assessed as depolarized bacterial cells by measuring red fluorescence at 10 to 15 ug/ml incubated for 4 hrs by DiOC2(3) dye based flow cytometry analysis (reference value: 63.8%); format: cell membranes; settings: dose 10-15 µg/ml
Cell membrane [47] = test: Induction of membrane depolarization in methicillin-resistant Staphylococcus aureus ATCC 33591 assessed as depolarized bacterial cells by measuring green fluorescence at 10 to 15 ug/ml incubated for 4 hrs by DiOC2(3) dye based flow cytometry analysis (reference value: 27.3%); format: cell membranes; settings: dose 10-15 µg/ml
Cell membrane [48] = test: Induction of membrane depolarization in methicillin-resistant Staphylococcus aureus ATCC 33591 assessed as depolarized bacterial cells by measuring red to green fluorescence ratio at 10 to 15 ug/ml incubated for 4 hrs by DiOC2(3) dye based flow cytometry analysis; format: cell membranes; settings: dose 10-15 µg/ml

Structure (SMILES): CCCCNc1nc(NCCCC)nc(N2CC3CC(C2)CN(c2nc(NCCCC)nc(NCCCC)n2)C3)n1
- Activity (Cell membrane [1]): 43.2%
- Activity (Staphylococcus aureus [2]): 100%
- Activity (Cell membrane [3]): Dose-Dependent Effect
- MIC [4]: 4 µg/mL (≈ 7.03 µM)
- selectivity ratio [5]: 400
- Activity (Cell membrane [6]): 47.8%
- selectivity ratio [7]: 400
- EC50 at 24 h [8]: 21 µg/mL (≈ 36.9 µM)
- MIC (Staphylococcus aureus [9]): 0.5 µg/mL (≈ 0.879 µM)
- MIC (Staphylococcus aureus [10]): 0.5 µg/mL (≈ 0.879 µM)
- log(activity) (Staphylococcus aureus [11]): ~2
- hemolysis at 1 h [12]: 0%
- selectivity ratio [13]: 800
- log(activity) (Staphylococcus aureus [14]): >5
- Activity (Staphylococcus aureus [15]): 50%
- selectivity ratio [16]: 800
- selectivity ratio [17]: 800
- MIC (Staphylococcus aureus [18]): 0.5 µg/mL (≈ 0.879 µM)
- MIC (Enterococcus faecium [19]): 1 µg/mL (≈ 1.76 µM)
- MIC (Escherichia coli): 64 µg/mL (≈ 113 µM)
- MIC (Staphylococcus aureus [20]): 0.5 µg/mL (≈ 0.879 µM)
- Activity (Staphylococcus aureus [21]): 100%
- Activity (Staphylococcus aureus [22]): Dose-Dependent Effect
- log(activity) (Staphylococcus aureus [23]): 1.7
- selectivity ratio [24]: 800
- viability at 24 h [25]: > 95%
- MIC (Staphylococcus aureus [26]): 0.5 µg/mL (≈ 0.879 µM)
- Activity (Cell membrane [27]): Active
- MIC (Staphylococcus aureus [28]): 0.5 µg/mL (≈ 0.879 µM)
- Activity (Staphylococcus aureus [29]): Active
- Activity (Staphylococcus aureus [30]): inactive
- Ratio (Cell membrane [31]): 1.1
- Activity (Cell membrane [32]): Dose-Dependent Effect
- Activity (Staphylococcus aureus [33]): 40%
- log(activity) (Staphylococcus aureus [34]): 3.5
- selectivity ratio [35]: 800
- MIC (Staphylococcus aureus [36]): 0.5 µg/mL (≈ 0.879 µM)
- selectivity ratio [37]: 800
- MIC (Enterococcus faecium [38]): 0.25 µg/mL (≈ 0.44 µM)
- selectivity ratio [39]: 400
- MIC (Enterococcus faecium [40]): 1 µg/mL (≈ 1.76 µM)
- HC50 at 1 h [41]: 810 µg/mL
- selectivity ratio [42]: 800
- Activity (Staphylococcus aureus [43]): 3 um
- selectivity ratio [44]: 800

Structure (SMILES): CN[C@H](CC(C)C)C(=O)N[C@H]1C(=O)N[C@@H](CC(N)=O)C(=O)N[C@H]2C(=O)N[C@H]3C(=O)N[C@H](C(=O)N[C@H](C(=O)O)c4cc(O)cc(O)c4-c4cc3ccc4O)[C@H](O)c3ccc(c(Cl)c3)Oc3cc2cc(c3O[C@@H]2O[C@H](CO)[C@@H](O)[C@H](O)[C@H]2O[C@H]2C[C@](C)(N)[C@H](O)[C@H](C)O2)Oc2ccc(cc2Cl)[C@H]1O [VANCOMYCIN]
- MIC (Staphylococcus aureus [10]): 512 µg/mL (≈ 353 µM)
- MIC (Staphylococcus aureus [18]): 512 µg/mL (≈ 353 µM)
- MIC (Enterococcus faecium [19]): 512 µg/mL (≈ 353 µM)
- Activity (Staphylococcus aureus [45]): inactive
- MIC (Enterococcus faecium [40]): 1020 µg/mL (≈ 707 µM)

Structure (SMILES): N#CC(C#N)=NNc1cccc(Cl)c1
- Activity (Cell membrane [46]): 49.1%
- Activity (Cell membrane [47]): 47.8%
- Ratio (Cell membrane [48]): 1.1
